Test results reported in patent publication US20210253598A1, “ARYL ANNULATED MACROCYCLIC INDOLE DERIVATIVES” (priority 2017, published 2021).
Values joined by “and” are separate entries in the source; they are usually repeats but may differ in a detail not shown here. Equal values may be shown once. Where a name gives a salt, the structure may show the parent alone. Read-outs that look alike come from different tables or passages of the source.

Experiments:
MCL-1 = MCL-1 (Homo sapiens, UniProt Q07820, K194A/K197A/R201A); experiment: Protein-protein interaction assay MCL-1/Noxa BH3 peptide, TR-FRET (MCL-1 assay, Assay 1); assay type: binding; conditions: MCL-1 Assay [M] (median), MBP-MCL-1 / Noxa BH3 peptide
Chain of MCL-1 (Q07820 173-321 K194A/K197A/R201A, looked up): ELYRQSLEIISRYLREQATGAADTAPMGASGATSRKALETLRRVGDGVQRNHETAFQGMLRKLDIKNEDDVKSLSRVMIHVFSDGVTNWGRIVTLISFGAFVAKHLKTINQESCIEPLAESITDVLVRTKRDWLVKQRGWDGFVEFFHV
Procedure, shortened: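 TR-FRET competition between compounds and a biotin-PEG Noxa BH3 tracer for 1 nM MBP-MCL-1 (residues 173-321). Incubation was 1 h at 22 °C in the dark, then overnight at 4 °C, in 50 mM Tris pH 7 buffer with KF and DTT, after a 10-min compound pre-equilibration. Normalized ratios were fitted with a 4-parameter Hill equation to give IC50.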

BCL-XL = BCL-XL (Homo sapiens, UniProt Q07817); experiment: Protein-protein interaction assay BCL-XL/Bad BH3 peptide, TR-FRET (BCL-XL assay, Assay 2); assay type: binding; conditions: His-BCL-XL / Bad BH3 peptide, median
Chain of BCL-XL (Q07817 1-212): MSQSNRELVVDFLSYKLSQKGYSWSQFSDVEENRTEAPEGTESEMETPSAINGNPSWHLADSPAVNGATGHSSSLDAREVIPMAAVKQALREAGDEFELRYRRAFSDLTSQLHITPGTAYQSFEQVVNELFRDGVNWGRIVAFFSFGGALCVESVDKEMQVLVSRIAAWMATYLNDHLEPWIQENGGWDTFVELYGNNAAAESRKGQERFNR
Protocol: Protein-Protein Interaction Assay: BCL-XL/Bad BH3 Peptide (BCL-XL Assay)
The dose-dependent inhibition by the compounds described in this invention of the interaction between BCL-XL and the BH3 domain of Bad (both human) was determined using a steady state binding competition assay with time-resolved fluorescence energy transfer (TR-FRET) readout. For that purpose BCL-XL (amino acids 1-212, C-terminal fused to a hexahistidine (6×His) tag (SEQ ID 3) and a synthetic Bad BH3-derived peptide of sequence Biotin-PEG2-PEG2-[sequence]-Nle-[sequence]-amide (SEQ ID 4) served as protein receptor and tracer ligand respectively. The recombinant BCL-XL protein (expressed in E. coli) was purchased from BPS Bioscience (San Diego, Calif., USA). The Bad BH3-derived peptide can be obtained from e.g. Biosyntan (Berlin, Germany).
For that, 100-fold concentrated DMSO solutions were prepared by serial dilutions (1:3.4) of a 2 mM stock solution in a clear, 384-well microtiter plate (Greiner Bio-One, Frickenhausen, Germany). From there, 50 nl were transferred in a dark test plate (Greiner Bio-One, Frickenhausen, Germany). The assay was initiated by addition of 2 μl of a 2,5-fold concentrated His-BCL-XL solution (usually for a 1 nM end concentration in 5 μl reaction volume) in aqueous assay buffer [50 mM Tris/HCl pH 7, 100 mM sodium chloride (NaCl), 50 mM potassium fluoride (KF), 0.005% Tween-20, 2 mM DTT, 0.1% bovine gamma globulin (BGG)] to the compounds in the assay plate. This was followed by a 10-minute incubation step at 22° C. for pre-equilibration of the putative complex between His-BCL-XL and the compounds.
The mixture was incubated in the dark for one hour at 22° C. and then overnight at 4° C. The formation of BCL-XL/Bad complexes was determined by measuring the resonance energy transfer of the anti-His- Eu-cryptate antibody to the streptavidin-XL665 present in the reaction. For that purpose, the fluorescence emission at 620 nm and 665 nm after excitation at 330-350 nm was measured in a TR-FRET measuring instrument, for instance a Rubystar or a Pherastar (both from BMG Lab Technologies, Offenburg, Germany) or a Viewlux (Perkin-Elmer). The ratio of the emission at 665 nm and at 622 nm was used as indicator of the amount of BCL-XL/Bad complexes present.
The resulting data (ratio) were normalized, taking 0% inhibition as the mean value of control measurements (usually 32 data points) where all reagents were included. In this case 50 nl DMSO were used instead of compounds. […] IC50 values were determined by regression analysis based on a 4 parameter equation (minimum, maximum, IC50, Hill; Y=Max+(Min−Max)/(1+(X/IC50)^Hill) using the Screener Software (Genedata).

BCL-2 = BCL-2 (Homo sapiens, UniProt P10415); experiment: Protein-protein interaction assay BCL-2/Bad BH3 peptide, TR-FRET (BCL-2 assay, Assay 3); assay type: binding; conditions: His-BCL-2 / Bad BH3 peptide, median
Chain of BCL-2 (P10415 1-211): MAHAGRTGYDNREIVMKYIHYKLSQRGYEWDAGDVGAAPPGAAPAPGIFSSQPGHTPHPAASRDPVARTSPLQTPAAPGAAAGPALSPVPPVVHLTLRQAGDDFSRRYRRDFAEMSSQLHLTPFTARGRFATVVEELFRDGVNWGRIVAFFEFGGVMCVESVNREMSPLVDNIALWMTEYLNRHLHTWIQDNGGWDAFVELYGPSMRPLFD

SUDHL5 [1] = experiment: Induction of caspase-3/7 activity in SUDHL5 cells (Assay 4); assay type: cell-based
Procedure, shortened: (§1)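 Luminescent Caspase-Glo 3/7 read-out in SUDHL5 and SUDHL10 cells after 3 h compound exposure at 37 °C, followed by 1 h reagent incubation.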

SUDHL10 [2] = experiment: Induction of caspase-3/7 activity in SUDHL10 cells (Assay 4); assay type: cell-based
Procedure, shortened: as §1

SUDHL5 [3] = experiment: Induction of cytotoxicity in SUDHL5 cells, CellTiter-Glo (Assay 6); assay type: cell-based
Procedure, shortened: (§2)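 Luminescent ATP read-out (CellTiter-Glo) after 5 h compound exposure at 37° C. Cells seeded the day before; medium-only wells as background; rim wells excluded.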

SUDHL10 [4] = experiment: Induction of cytotoxicity in SUDHL10 cells, CellTiter-Glo (Assay 6); assay type: cell-based
Procedure, shortened: as §2

SUDHL5 [5] = experiment: Anti-proliferative effect in SUDHL5 cells, CellTiter-Glo (Assay 7); assay type: cell-based
Procedure, shortened: (§3)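 Cells were plated and incubated overnight at 37 °C alongside a day 0 reference plate, then exposed to compound for 72 h. Viability was read by CellTiter-Glo luminescence, and IC50s were calculated using day 0 values and DMSO controls as references.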

MV-4-11 = experiment: Anti-proliferative effect in MV-4-11 cells, CellTiter-Glo (Assay 7); assay type: cell-based
Procedure, shortened: as §3

A2780 = experiment: Anti-proliferative effect in A2780 cells, CellTiter-Glo (Assay 7); assay type: cell-based
Procedure, shortened: as §3

AMO-1 = experiment: Anti-proliferative effect in AMO-1 cells, CellTiter-Glo (Assay 7); assay type: cell-based
Protocol: Assessment of the Anti-Proliferative Effect of Compounds in Different Cell Lines
The impact of compounds on the proliferation of different cell lines was assessed using the CellTiter-Glo® Luminescent Cell Viability reagent from Promega (G7573).
In parallel, cells were plated in a reference (day 0) plate for time zero determination. Cells were incubated in a humidified incubator at 37° C. overnight.
Rim wells were excluded. The cells were incubated for 72 hours in a humidified incubator at 37° C. The day 0 plate was measured by adding 30 μL/well of CTG solution (CellTiter-Glo® Luminescent Cell Viability reagent, Promega G7573) to time zero wells in the reference plate followed by a 10 minutes incubation and luminescence reading at 0.1 ms. using the PHERAstar FS microplate reader (BMG Labtech).
After 72 hours incubation, the treated plates were measured in the same way as the day 0 plate mentioned above. The Bella DRC Master Sheet was used to calculate IC50s, with CI=day 0 values and C0=DMSO control values.

[6] = Homo sapiens, SU-DHL-5, 3 h, SUDHL5, 3 hours treatment, Caspase-Glo 3/7, median, read-out: Caspase SUDHL5 [M] (median)
[7] = Homo sapiens, SU-DHL10, 3 h, SUDHL10, 3 hours treatment, Caspase-Glo 3/7, median, read-out: Caspase SUDHL10 [M] (median)
[8] = Homo sapiens, SU-DHL-5, 5 h, SUDHL5, 5 hours incubation, median, read-out: Cytotox SUDHL5 [M] (median)
[9] = Homo sapiens, SU-DHL10, 5 h, SUDHL10, 5 hours incubation, median, read-out: Cytotox SUDHL10 [M] (median)
[10] = Homo sapiens, SU-DHL-5, 72 h, SUDHL5, 72 hours incubation, CellTiter-Glo, median, read-out: Antiproli SUDHL5 [M] (median)
[11] = Homo sapiens, MV4-11, 72 h, MV-4-11, 72 hours incubation, CellTiter-Glo; several values per example; read-out: Antiproli MV-4-11
[12] = Homo sapiens, A2780, 72 h, A2780, 72 hours incubation, CellTiter-Glo; several values per example; read-out: Antiproli A2780
[13] = SUDHL5, 3 hours treatment, Caspase-Glo 3/7, median, read-out: Caspase SUDHL5 [M] (median)
[14] = SUDHL10, 3 hours treatment, Caspase-Glo 3/7, median, read-out: Caspase SUDHL10 [M] (median)
[15] = A2780, 72 hours incubation, CellTiter-Glo; several values per example; read-out: Antiproli A2780
[16] = SUDHL5, 5 hours incubation, median, read-out: Cytotox SUDHL5 [M] (median)
[17] = SUDHL10, 5 hours incubation, median, read-out: Cytotox SUDHL10 [M] (median)
[18] = read-out: Caspase SUDHL5 [M] (median), SUDHL5, 3 hours treatment, Caspase-Glo 3/7
[19] = read-out: Caspase SUDHL10 [M] (median), SUDHL10, 3 hours treatment, Caspase-Glo 3/7
[20] = read-out: Antiproli SUDHL5 [M] (median), SUDHL5, 72 hours incubation, CellTiter-Glo
[21] = read-out: Antiproli MV-4-11; MV-4-11, 72 hours incubation, CellTiter-Glo; several values per example
[22] = read-out: Antiproli AMO-1; AMO-1, 72 hours incubation, CellTiter-Glo; several values per example
[23] = read-out: Antiproli A2780; A2780, 72 hours incubation, CellTiter-Glo; several values per example

CCc1c2c(nn1C)COCc1ccccc1Cn1c(C(=O)O)c(CCCOc3cc(C)c(Cl)c(C)c3)c3ccc(F)c-2c31 (racemic) [Example 79, (rac)-1-(3-(4-Chloro-3,5-dimethylphenoxy)propyl)-14-15-fluoro-13-methyl-4,9,11,13-tetrahydrobenzo[3,4]pyrazolo[4′,3′:9,10][1]oxa[6]azacycloundecino[8,7,6-hi]indole-2-carboxylic Acid]
IC50 (MCL-1): 2.6e-09 M | IC50 (BCL-XL): 19.6 µM | IC50 (BCL-2): 15.6 µM | EC50 (SUDHL5 [1]; [6]): 2.9e-06 M | EC50 (SUDHL10 [2]; [7]): 1.3e-05 M | IC50 (SUDHL5 [3]; [8]): 2.1e-06 M | IC50 (SUDHL10 [4]; [9]): 1e-05 M | IC50 (SUDHL5 [5]; [10]): 9.2e-06 M | IC50 (MV-4-11; [11]): 2.33 µM | IC50 (A2780; [12]): 17 µM

Cc1c2c(nn1C)CNCc1ccccc1Cn1c(C(=O)O)c(CCCOc3cccc4ccccc34)c3cccc-2c31 (single isomer, unassigned; enantiomer 1) [Example 12, 4,5-Dimethyl-17-[3-(naphthalen-1-yloxy)propyl]-7,8,9,14-tetrahydro-5H-indolo[1,7-bc]pyrazolo-[4,3-e][2,8]benzodiazacycloundecine-16-carboxylic acid-Trifluoroacetic Acid Salt (Enantiomer 1)]
IC50 (MCL-1): 2.9e-09 M | IC50 (BCL-XL): > 20 µM | IC50 (BCL-2): > 20 µM | EC50 (SUDHL5 [1]; [13]): 2.4e-06 M | EC50 (SUDHL10 [2]; [14]): 4.9e-06 M | IC50 (SUDHL5 [3]; read-out: Cytotox SUDHL5 [M] (median), SUDHL5, 5 hours incubation): 1.9e-06 M | IC50 (SUDHL10 [4]; read-out: Cytotox SUDHL10 [M] (median), SUDHL10, 5 hours incubation): 5e-06 M

Cc1c2c(nn1C)COCc1nc3ccccc3nc1Cn1c(C(=O)O)c(CCCOc3cccc4ccccc34)c3cccc-2c31 (racemic) [Example 10, (rac)-4,5-Dimethyl-19-[3-(naphthalen-1-yloxy)propyl]-5,7,9,16-tetrahydroindolo[1′,7′:6,7,8]-pyrazolo[4′,3′:9,10][1,6]oxazacycloundecino[3,4-b]quinoxaline-18-carboxylic Acid]
IC50 (BCL-XL): > 20 µM | IC50 (BCL-2): > 20 µM | EC50 (SUDHL5 [1]; [6]): 4.3e-06 M | EC50 (SUDHL10 [2]; [7]): 1.8e-05 M | IC50 (SUDHL5 [3]; [8]): 5.6e-06 M | IC50 (SUDHL10 [4]; [9]): 1.4e-05 M | IC50 (SUDHL5 [5]; [10]): 5.1e-06 M | IC50 (A2780; [15]): 20.6 µM | IC50 (A2780; [12]): > 33 µM

CCc1c2c(nn1C)COCc1ccccc1Cn1c(C(=O)O)c(CCCOc3cccc4cc(F)ccc34)c3ccc(Cl)c-2c31 (racemic) [Example 54, (rac)-3-Chloro-4-ethyl-17-{3-[(6-fluoronaphthalen-1-yl)oxy]propyl}-5-methyl-5,7,9,14-tetrahydroindolo[7,1-fg]pyrazolo[3,4-d][2,8]benzoxazacycloundecine-16-carboxylic Acid]
IC50 (MCL-1): 8.3e-10 M | EC50 (SUDHL5 [1]; [6]): 8.4e-07 M | EC50 (SUDHL10 [2]; [7]): 1.8e-06 M | IC50 (SUDHL5 [3]; [8]): 9.3e-07 M | IC50 (SUDHL10 [4]; [9]): 2.6e-06 M | IC50 (SUDHL5 [5]; [10]): 1.4e-06 M | IC50 (MV-4-11; [11]): 3.83 µM | IC50 (AMO-1; Homo sapiens, AMO1, 72 h, AMO-1, 72 hours incubation, CellTiter-Glo; several values per example; read-out: Antiproli AMO-1): 1.77 µM | IC50 (A2780; [12]): 6.59 µM

CCc1nn(CCN2CCOCC2)c2c1-c1c(Cl)ccc3c(CCCOc4cccc5cc(F)ccc45)c(C(=O)O)n(c13)Cc1ccccc1COC2 (single isomer, unassigned; enantiomer 2) [Example 53, (+)-3-Chloro-4-ethyl-17-{3-[(6-fluoronaphthalen-1-yl)oxy]propyl}-6-[2-(morpholin-4-yl)ethyl]-6,7,9,14-tetrahydroindolo[7,1-fg]pyrazolo[3,4-d][2,8]benzoxazacycloundecine-16-carboxylic Acid (Enantiomer 2)]
IC50 (MCL-1): 8.3e-09 M | EC50 (SUDHL5 [1]; [13]): 1.8e-06 M | EC50 (SUDHL10 [2]; [14]): 5.9e-06 M | IC50 (SUDHL5 [3]; [16]): 2.3e-06 M | IC50 (SUDHL10 [4]; [17]): 6.5e-06 M | IC50 (SUDHL5 [5]; SUDHL5, 72 hours incubation, CellTiter-Glo, median, read-out: Antiproli SUDHL5 [M] (median)): 2.8e-06 M | IC50 (MV-4-11; MV-4-11, 72 hours incubation, CellTiter-Glo; several values per example; read-out: Antiproli MV-4-11): 4.91 µM and 8.2 µM | IC50 (AMO-1; AMO-1, 72 hours incubation, CellTiter-Glo; several values per example; read-out: Antiproli AMO-1): 9.44 µM | IC50 (A2780; [15]): 8.15 µM

CCc1c2c(nn1C)COCc1ccccc1Cn1c(C(=O)O)c(CCCOc3cccc4ccccc34)c3ccc(F)c-2c31 (single isomer, unassigned; enantiomer 2) [Example 72, (+)-4-Ethyl-3-fluoro-5-methyl-17-{3-[(naphthalen-1-yl)oxy]propyl}-5,7,9,14-tetrahydroindolo[7,1-fg]pyrazolo[3,4-d][2,8]benzoxazacycloundecine-16-carboxylic acid-N-ethylethanamine Salt (Enantiomer 2)]
IC50 (MCL-1): 5.2e-09 M | EC50 (SUDHL5 [1]; [18]): 1.2e-05 M | EC50 (SUDHL10 [2]; [19]): > 2.8e-05 M | IC50 (SUDHL5 [3]; [16]): 8.5e-06 M | IC50 (SUDHL10 [4]; [17]): 2.6e-05 M | IC50 (SUDHL5 [5]; [20]): 1.2e-05 M | IC50 (MV-4-11; [21]): 9.57 µM | IC50 (AMO-1; [22]): 18.9 µM | IC50 (A2780; [23]): 15 µM

Cc1c2c(nn1C)CN(S(=O)(=O)CCN1CCOCC1)Cc1ccccc1Cn1c(C(=O)O)c(CCCOc3cccc4ccccc34)c3cccc-2c31 (single isomer, unassigned; enantiomer 2) [Example 32, (−)-4,5-Dimethyl-8-[2-(morpholin-4-yl)ethanesulfonyl]-17-{3-[(naphthalen-1-yl)oxy]propyl}-7,8,9,14-tetrahydro-5H-indolo[1,7-bc]pyrazolo[4,3-e][2,8]benzodiazacycloundecine-16-carboxylic acid-N-ethylethanamine Salt (Enantiomer 2)]
IC50 (MCL-1): 1.8e-07 M | EC50 (SUDHL5 [1]; [18]): > 3.3e-05 M | EC50 (SUDHL10 [2]; [19]): > 3.3e-05 M | IC50 (SUDHL5 [3]; [16]): > 3.3e-05 M | IC50 (SUDHL10 [4]; [17]): > 3.3e-05 M | IC50 (SUDHL5 [5]; [20]): 4.5e-06 M | IC50 (MV-4-11; [21]): 8.42 µM | IC50 (AMO-1; [22]): 13.5 µM | IC50 (A2780; [23]): 10.8 µM
